In US20110319360A1, “Method of including apoptosis/Cell death in leukemia cell using a purine nucleoside analogue” (U.S. Department of Veterans Affairs, priority 2010, published 2011):
Where two headings read alike, the source gives them in different places.

Assays:
[1] = Prior in vivo toxicity studies in rodents
[2] = test system: normal PBMCs; assay: MTS cytotoxicity assay on PBMCs from normal donors; format: cell-based, human; settings: for EC50: Homo sapiens, PBMC
Protocol: For toxicity studies involving normal blood cells, normal volunteers were enrolled in an IRB-approved protocol for blood collection. PBMCs were isolated from heparin-anticoagulated blood by ficoll-Hypaque density gradient centrifugation.
(§1) 2.5×10^5 CLL cells were incubated in triplicate or quadruplicate in a 96-well tissue culture plate (Costar, Corning, N.Y.) with serial dilutions of LMP-420, fludarabine, and/or recombinant TNF-alpha (R&D Systems, Minneapolis, Minn.) in Hybridoma serum free media (SFM) (GIBCO/Invitrogen, Carlsbad, Calif.) containing 10% heat-inactivated fetal bovine serum (FBS) (Sigma) at 37° C. with 5% CO2. After 72 hours, 20 μl CellTiter 96® AQueous One Solution Cell Proliferation Assay (Promega, Madison, Wis.) MTS (3-(4,5 dimethylthiazol-2-yl)-5-(3-carboxymethoxyphenyl-2-(4-sulfophenyl)-2H-tetrazolium) reagent was added to each well and the absorbance was read at 490 nm on a Thermomax microplate reader (Molecular Devices, Sunnyvale, Calif.). We calculated fractional cytotoxicity as performed previously (Reference 12), comparing absorbance at 490 nm from treated cells to control cells incubated with media alone.
(§2) The concentration effective at killing 50% of CLL cells compared to media alone (ED50) was calculated when 50% fractional cytotoxicity occurred within the range of serial dilutions tested (Reference 12). If the ED50 fell below or above this range, it was set to either the lowest or the highest concentration tested, respectively, for the purposes of statistical analyses and graphical representation.

[3] = test system: CD19-positive B-cell; assay: Annexin V apoptosis of normal B-lymphocytes in PBMCs; format: cell-based, human; settings: 72 hours
Protocol: (§3) PBMCs were cultured at 10^6 cells/ml in a 12-well tissue culture plate. Cells were treated for 72 hours with vehicle control or drug for 72 hours, then harvested as above for staining. PBMCs were resuspended at 2×10^5 cells/tube in 100 μl buffer (HBSS, 0.5% bovine serum albumin, 0.1% sodium azide) and incubated for 30 min with CD3-FITC or CD19-FITC antibodies according to the manufacturer's protocol (BD Biosciences). Cells were then incubated with PE-annexin V and 7-AAD (BD Biosciences) in annexin V binding buffer (BD Biosciences) for 15 minutes prior to analysis of apoptosis on the Guava EasyCyte™ Plus system.

[4] = test system: CD34+ hematopoietic progenitor cells (erythroid colonies); assay: Colony formation assay, erythroid colonies; format: cell-based, human
Protocol: (§4) CD34^+ hematopoietic progenitor cells were isolated from PBMCs from two healthy donors using the CD34 Microbead Kit (Miltenyi Biotec, Auburn, Calif.). 10^3 CD34^+-enriched cells were cultured in a 35 mm culture plate (1000 cells/plate) with or without LMP-420 or fludarabine in 1.1 ml Human Methylcellulose Complete Media (R&D Systems) according to the manufacturer's protocol. Plates were incubated for 14 days at 37° C. in humidified 5% CO2. Each treatment group was tested in triplicate. Colonies on plates were scored by two independent observers, blinded to the treatment groups, by microscopic evaluation under 10× and 20× power. Colonies were categorized as being of either erythroid or myeloid lineage.

[5] = test system: CD34+ hematopoietic progenitor cells (myeloid colonies); assay: Colony formation assay, myeloid colonies; format: cell-based, human
Protocol: as §4

[6] = test system: CLL cells; assay: MTS cytotoxicity assay on primary CLL cells; format: cell-based; settings: Homo sapiens, CLL cell
Protocol: On the same day that heparin-anticoagulated venous blood was collected from participants, CLL cells were purified by methods described previously (Reference 11). Briefly, CLL cells were isolated from whole blood using the RosetteSep® B-cell enrichment cocktail (Stem Cell Technologies, Vancouver, BC, Canada) together with ficoll-Hypaque density gradient centrifugation. This method yielded CLL cell purity of greater than 95% CD5^+CD19^+ B-cells.
as §1, §2

[7] = test system: CD3-positive T-cell; assay: Annexin V apoptosis of normal T-lymphocytes in PBMCs; format: cell-based, human; settings: 72 hours
Protocol: as §3

[8] = test system: normal PBMCs; assay: [3H]-thymidine proliferation assay, mitogen-stimulated normal PBMCs; format: cell-based, human; settings: for IC50: Homo sapiens, PBMC, 96 h, read-out: IC50 for suppression of mitogen-induced proliferation
Protocol: CLL cells (2×10^5 cells/well) were cultured in quadruplicate in a volume of 200 μl in 96-well tissue culture plates for 96 hours with 1 μM CpG-oligodeoxynucleotides (ODN) DSP30 (Reference 14) (Midland Certified Reagent Company, Midland, Tex.) and 100 units/ml IL-2 (R&D Systems) in the presence or absence of drug. As controls, cells were treated with media without DSP30/IL-2. Cells were incubated with 1 μCi/well [methyl-^3H]-thymidine (specific activity 6.7 Ci/mmol, PerkinElmer, Waltham, Mass., USA) for 14-18 hours prior to harvesting onto glass-fiber filters using a semi-automated cell harvester. [^3H]-thymidine incorporation was measured as counts per minute (cpm) using a Tri-Carb 2100 timed-resolved liquid scintillation counter (PerkinElmer). The same protocol was utilized for proliferation assays with normal PBMCs, with the exception that growth was stimulated by treatment with 10 μg/ml Phytohemagglutinin-P (PHA, Sigma), 5 μg/ml concanavalin A (ConA, Sigma), 2 μg/ml pokeweed mitogen (PWM, Sigma), 25 ng/ml muromonab-CD3 (α-CD3, Ortho Pharmaceuticals, Raritan, N.J.), or 50 ng/ml phorbol myristate acetate (PMA, Sigma) plus 1 μg/ml ionomycin (iono, Sigma) for 96 hours. Proliferation is reported as percent of control (drug-treated cpm/control-treated cpm×100%).

[9] = Reference 44; cited from earlier work

Nc1nc(Cl)c2ncn(CCCCCB(O)O)c2n1 [LMP-420, 2-amino-6-chloro-9-[5(dihydroxyboryl)-pentyl] purine]
peak plasma level at non-toxic doses [1]: greater than 10 μM
potentiation of fludarabine cytotoxicity on normal PBMCs ([2]; 62 or 250 nM LMP-420 with fludarabine, 72 hours, n=3): did not potentiate
EC50 ([2]; 72 hours, MTS, not reached at up to 512 μM, read-out: median ED50 on normal PBMCs): > 512 µM
EC50 ([2]; mean, PBMCs from healthy blood donors (n = 3-6), read-out: ED50 (μM), PBMC): > 512 µM
average percent drug-specific apoptosis, B-cells ([3]; 1 μM, n=3): 11%
apoptosis in normal B-lymphocytes ([3]; concentrations up to 90 μM): did not induce significant apoptosis
erythroid colony IC50 relative to CLL ED50 [4]: greater than 40 fold
IC50 ([4]; Homo sapiens, 336 h, 14 days, healthy donors (n=2), read-out: mean IC50 for normal erythroid colony formation): 10 µM
myeloid colony IC50 relative to CLL ED50 [5]: greater than 40 fold
IC50 ([5]; Homo sapiens, 336 h, 14 days, healthy donors (n=2), read-out: mean IC50 for normal myeloid colony formation): 25 µM
EC50 ([6]; 72 h, five patients of the nucleosome ELISA set, 72 hours, read-out: mean ED50, fractional cytotoxicity by MTS): ~0.85 µM
EC50 ([6]; 72 h, primary CLL cells, 72 hours, MTS, mean of 35 samples, read-out: mean concentration required to induce 50% cytotoxicity (ED50)): 0.245 µM
EC50 ([6]; CLL samples with favorable risk cytogenetic aberrations, n=27, read-out: median MTS ED50): 0.162 µM
EC50 ([6]; CLL samples with favorable risk cytogenetic aberrations, n=27, read-out: range of MTS ED50): 0.027 to 2.52 µM
EC50 ([6]; CLL samples with poor risk cytogenetic aberrations, n=5, read-out: median MTS ED50): 0.332 µM
EC50 ([6]; mean value from the MTS experiments, read-out: ED50 (μM), CLL): 0.25 µM
average percent drug-specific apoptosis, T-cells ([7]; 1 μM, n=3): −1%
apoptosis in normal T-lymphocytes ([7]; concentrations up to 90 μM): did not induce significant apoptosis
PBMC proliferation IC50 relative to ED50 in CLL cells [8]: 100- to 250 fold
IC50 ([8]; Con A, 96 hours): 71 µM
IC50 ([8]; PHA, 96 hours): > 90 µM
IC50 ([8]; PMA/Iono, 96 hours): > 90 µM
IC50 ([8]; PWM, 96 hours): > 90 µM
IC50 ([8]; α-CD3, 96 hours): 33 µM
oral bioavailability [9]: orally bioavailable
tolerability in vivo [9]: well-tolerated in vivo
